# According to ChEMBL document CHEMBL5316298, “Discovery of Amphiphilic Xanthohumol Derivatives as Membrane-Targeting Antimicrobials against Methicillin-Resistant Staphylococcus aureus” (J Med Chem, 2023):
# Active and inactive are the calls of the source. The calls are words filed in the database; no cut-off is given here.
# Experiments:
# Cell membrane = experiment: Induction of membrane depolarization in methicillin-resistant Staphylococcus aureus 3 assessed as increase in fluorescence intensity at 32 ug/ml measured every 2 mins for 20 mins by SYTOX-green dye based fluorescence assay; assay type: subcellular; details: dose 32.0 µg/ml
# Staphylococcus aureus [1] = experiment: Antibacterial activity against Staphylococcus aureus ATCC 29213 incubated for 16 to 18 hrs by CLSI-based microbroth dilution method; assay type: functional; details: time 16-18 hrs
# Staphylococcus aureus [2] = experiment: Antibacterial activity against methicillin-resistant Staphylococcus aureus clinical isolate 1 incubated for 16 to 18 hrs by CLSI-based microbroth dilution method; assay type: functional; details: time 16-18 hrs
# Staphylococcus aureus [3] = experiment: Antibacterial activity against methicillin-resistant Staphylococcus aureus clinical isolate 2 incubated for 16 to 18 hrs by CLSI-based microbroth dilution method; assay type: functional; details: time 16-18 hrs
# Staphylococcus aureus [4] = experiment: Antibacterial activity against methicillin-resistant Staphylococcus aureus clinical isolate 3 incubated for 16 to 18 hrs by CLSI-based microbroth dilution method; assay type: functional; details: time 16-18 hrs
# Staphylococcus aureus [5] = experiment: Antibacterial activity against methicillin-resistant Staphylococcus aureus clinical isolate 4 incubated for 16 to 18 hrs by CLSI-based microbroth dilution method; assay type: functional; details: time 16-18 hrs
# Staphylococcus aureus [6] = experiment: Antibacterial activity against methicillin-resistant Staphylococcus aureus clinical isolate 5 incubated for 16 to 18 hrs by CLSI-based microbroth dilution method; assay type: functional; details: time 16-18 hrs
# Staphylococcus aureus [7] = experiment: Antibacterial activity against methicillin-resistant Staphylococcus aureus clinical isolate 6 incubated for 16 to 18 hrs by CLSI-based microbroth dilution method; assay type: functional; details: time 16-18 hrs
# Staphylococcus aureus [8] = experiment: Antibacterial activity against methicillin-resistant Staphylococcus aureus clinical isolate 7 incubated for 16 to 18 hrs by CLSI-based microbroth dilution method; assay type: functional; details: time 16-18 hrs
# Staphylococcus aureus [9] = experiment: Antibacterial activity against methicillin-resistant Staphylococcus aureus clinical isolate 8 incubated for 16 to 18 hrs by CLSI-based microbroth dilution method; assay type: functional; details: time 16-18 hrs
# Staphylococcus aureus [10] = experiment: Antibacterial activity against methicillin-resistant Staphylococcus aureus clinical isolate 9 incubated for 16 to 18 hrs by CLSI-based microbroth dilution method; assay type: functional; details: time 16-18 hrs
# Staphylococcus aureus [11] = experiment: Antibacterial activity against methicillin-resistant Staphylococcus aureus clinical isolate 10 incubated for 16 to 18 hrs by CLSI-based microbroth dilution method; assay type: functional; details: time 16-18 hrs
# [12] = Hemolytic activity in sheep erythrocytes incubated for 1 hr by absorbance based analysis; assay type: toxicity, cell-based, Ovis aries, Erythrocyte
# Staphylococcus aureus [13] = experiment: Induction of drug resistance in Staphylococcus aureus ATCC 29213 assessed as fold increase in MIC at 0.5 times MIC measured for 20 passages relative to control; assay type: functional
# Staphylococcus aureus [14] = experiment: Antibacterial activity against methicillin-resistant Staphylococcus aureus 3 infected in KM mouse assessed as reduction in inflammatory cells in subcutaneous tissue at 5 mg/kg administered into skin infection site measured after 24 hrs by H and E staining based analysis; assay type: functional, organism-based
# Staphylococcus aureus [15] = experiment: Antibacterial activity against methicillin-resistant Staphylococcus aureus 3 infected in KM mouse assessed as reduction in bacterial load at infection site at 5 mg/kg administered into skin infection site measured after 24 hrs relative to control; assay type: functional; design: scale not given: the % may be the effect or the level left
# Staphylococcus aureus [16] = experiment: Antibacterial activity against methicillin-resistant Staphylococcus aureus 3 infected in KM mouse assessed as reduction in bacterial load at infection site by measuring colony forming units at 5 mg/kg administered into skin infection site measured after 24 hrs; assay type: functional
# Staphylococcus aureus [17] = experiment: Antibacterial activity against methicillin-resistant Staphylococcus aureus 3 infected in KM mouse assessed as reduction in abscesses on dorsal surface of skin at 5 mg/kg administered into skin infection site measured after 24 hrs; assay type: functional, organism-based
# Staphylococcus aureus [18] = experiment: Antibacterial activity against methicillin-resistant Staphylococcus aureus 3 infected in KM mouse assessed as reduction in abscesses inside the skin at 5 mg/kg administered into skin infection site measured after 24 hrs; assay type: functional, organism-based
# Staphylococcus aureus [19] = experiment: Antibacterial activity against methicillin-resistant Staphylococcus aureus 3 infected in KM mouse assessed as reduction in size of abscesses at 5 mg/kg administered into skin infection site measured after 24 hrs; assay type: functional, organism-based
# [20] = Toxicity in KM mouse infected with methicillin-resistant Staphylococcus aureus 3 assessed as heart damage at 5 mg/kg administered into skin infection site measured after 24 hrs by H and E staining based analysis; assay type: organism-based; details: in vivo, topical_or_ocular
# [21] = Toxicity in KM mouse infected with methicillin-resistant Staphylococcus aureus 3 assessed as liver damage at 5 mg/kg administered into skin infection site measured after 24 hrs by H and E staining based analysis; assay type: organism-based; details: in vivo, topical_or_ocular
# [22] = Toxicity in KM mouse infected with methicillin-resistant Staphylococcus aureus 3 assessed as spleen damage at 5 mg/kg administered into skin infection site measured after 24 hrs by H and E staining based analysis; assay type: organism-based; details: in vivo, topical_or_ocular
# [23] = Toxicity in KM mouse infected with methicillin-resistant Staphylococcus aureus 3 assessed as lung damage at 5 mg/kg administered into skin infection site measured after 24 hrs by H and E staining based analysis; assay type: organism-based; details: in vivo, topical_or_ocular
# [24] = Toxicity in KM mouse infected with methicillin-resistant Staphylococcus aureus 3 assessed as kidneys damage at 5 mg/kg administered into skin infection site measured after 24 hrs by H and E staining based analysis; assay type: organism-based; details: in vivo, topical_or_ocular
# [25] = Toxicity in KM mouse infected with methicillin-resistant Staphylococcus aureus 3 assessed as histopathological abnormalities in heart at 5 mg/kg administered into skin infection site measured after 24 hrs by H and E staining based analysis; assay type: organism-based; details: in vivo, topical_or_ocular
# [26] = Toxicity in KM mouse infected with methicillin-resistant Staphylococcus aureus 3 assessed as histopathological abnormalities in spleen at 5 mg/kg administered into skin infection site measured after 24 hrs by H and E staining based analysis; assay type: organism-based; details: in vivo, topical_or_ocular
# [27] = Toxicity in KM mouse infected with methicillin-resistant Staphylococcus aureus 3 assessed as histopathological abnormalities in lungs at 5 mg/kg administered into skin infection site measured after 24 hrs by H and E staining based analysis; assay type: organism-based; details: in vivo, topical_or_ocular
# [28] = Toxicity in KM mouse infected with methicillin-resistant Staphylococcus aureus 3 assessed as multifocal enlargement of hepatocytes with cytoplasmic foamy swelling at 5 mg/kg administered into skin infection site measured after 24 hrs by H and E staining based analysis; assay type: organism-based; details: in vivo, topical_or_ocular
# [29] = Toxicity in KM mouse infected with methicillin-resistant Staphylococcus aureus 3 assessed as swelling of renal tubular epithelial cells with granular degeneration at 5 mg/kg administered into skin infection site measured after 24 hrs by H and E staining based analysis; assay type: organism-based; details: in vivo, topical_or_ocular
# [30] = Toxicity in KM mouse infected with methicillin-resistant Staphylococcus aureus 3 assessed as vacuolar degeneration in the kidneys at 5 mg/kg administered into skin infection site measured after 24 hrs by H and E staining based analysis; assay type: organism-based; details: in vivo, topical_or_ocular
# Staphylococcus aureus [31] = experiment: Antibacterial activity against Staphylococcus aureus ATCC 29213 assessed as inhibition of bacterial growth by CLSI based microdilution broth assay; assay type: functional
# Staphylococcus aureus [32] = experiment: Antibacterial activity against Staphylococcus aureus D5 assessed as inhibition of bacterial growth by CLSI based microdilution broth assay; assay type: functional
# Staphylococcus aureus [33] = experiment: Antibacterial activity against Staphylococcus aureus A7 assessed as inhibition of bacterial growth by CLSI based microdilution broth assay; assay type: functional
Compound,MIC (Staphylococcus aureus [1]) [µg/mL],MIC (Staphylococcus aureus [2]) [µg/mL],MIC (Staphylococcus aureus [3]) [µg/mL],MIC (Staphylococcus aureus [4]) [µg/mL],MIC (Staphylococcus aureus [5]) [µg/mL],MIC (Staphylococcus aureus [6]) [µg/mL],MIC (Staphylococcus aureus [7]) [µg/mL],MIC (Staphylococcus aureus [8]) [µg/mL],MIC (Staphylococcus aureus [9]) [µg/mL],MIC (Staphylococcus aureus [10]) [µg/mL],MIC (Staphylococcus aureus [11]) [µg/mL],HC50 at 1 h [12] [µg/mL],other results
CC[C@H](C)[C@H](NC(=O)CN)C(=O)NCC(=O)N[C@@H](C)C(=O)N[C@H](C(=O)N[C@@H](CC(C)C)C(=O)N[C@@H](CCCCN)C(=O)N[C@H](C(=O)N[C@@H](CC(C)C)C(=O)N[C@H](C(=O)N[C@H](C(=O)NCC(=O)N[C@@H](CC(C)C)C(=O)N1CCC[C@H]1C(=O)N[C@@H](C)C(=O)N[C@@H](CC(C)C)C(=O)N[C@H](C(=O)N[C@@H](CO)C(=O)N[C@@H](Cc1c[nH]c2ccccc12)C(=O)N[C@H](C(=O)N[C@@H](CCCCN)C(=O)N[C@@H](CCCNC(=N)N)C(=O)N[C@@H](CCCCN)C(=O)N[C@@H](CCCNC(=N)N)C(=O)N[C@@H](CCC(N)=O)C(=O)N[C@@H](CCC(N)=O)C(N)=O)[C@@H](C)CC)[C@@H](C)CC)[C@@H](C)O)[C@@H](C)O)C(C)C)C(C)C,–,–,–,–,–,–,–,–,–,–,–,–,Activity (Cell membrane): Active
CCCCCCNC(=O)C[N+](C)(C)CCCOc1ccc(/C=C/C(=O)c2c(OC)cc3c(c2O)C=CC(C)(C)O3)cc1.[Br-],2,2,2,2,2,2,4,4,2,1,1,97.9,–
CCCCCCNC(=O)C[N+](C)(C)CCCCOc1ccc(/C=C/C(=O)c2c(OC)cc3c(c2O)C=CC(C)(C)O3)cc1.[Br-],2,2,2,2,8,2,1,4,4,4,2,938,–
CCCN(CCC)C(=O)C[N+](C)(C)CCCCCOc1ccc(/C=C/C(=O)c2c(OC)cc3c(c2O)C=CC(C)(C)O3)cc1.[Br-],2,4,4,2,2,2,1,2,2,1,2,436,–
COc1cc2c(c(O)c1C(=O)/C=C/c1ccc(OCCCC[N+](C)(C)CC(=O)N(C(C)C)C(C)C)cc1)C=CC(C)(C)O2.[Br-],2,8,2,2,2,2,1,2,2,2,2,657,–
CCn1cc(C(=O)O)c(=O)c2cc(F)c(N3CCNCC3)cc21,–,–,–,–,–,–,–,–,–,–,–,–,fold change (FC) (Staphylococcus aureus [13]): 128
COc1cc2c(c(O)c1C(=O)/C=C/c1ccc(OCCCCC[N+](C)(C)CC(=O)N(C(C)C)C(C)C)cc1)C=CC(C)(C)O2.[Br-],2,2,2,2,1,2,1,2,4,2,2,229,–
CN[C@H](CC(C)C)C(=O)N[C@H]1C(=O)N[C@@H](CC(N)=O)C(=O)N[C@H]2C(=O)N[C@H]3C(=O)N[C@H](C(=O)N[C@H](C(=O)O)c4cc(O)cc(O)c4-c4cc3ccc4O)[C@H](O)c3ccc(c(Cl)c3)Oc3cc2cc(c3O[C@@H]2O[C@H](CO)[C@@H](O)[C@H](O)[C@H]2O[C@H]2C[C@](C)(N)[C@H](O)[C@H](C)O2)Oc2ccc(cc2Cl)[C@H]1O [VANCOMYCIN],–,–,–,–,–,–,–,–,–,–,–,–,Activity (Staphylococcus aureus [14]): Active; Activity (Staphylococcus aureus [15]): 99.479%; Activity (Staphylococcus aureus [16]): 2.2 log10CFU/g; Activity (Staphylococcus aureus [17]): inactive; Activity (Staphylococcus aureus [18]): inactive; Activity (Staphylococcus aureus [19]): Active; Activity [20]: Non-Toxic; Activity [21]: Non-Toxic; Activity [22]: Non-Toxic; Activity [23]: Non-Toxic; Activity [24]: Non-Toxic; Activity [25]: Non-Toxic; Activity [26]: Non-Toxic; Activity [27]: Non-Toxic; Activity [28]: Non-Toxic; Activity [29]: Non-Toxic; Activity [30]: Non-Toxic
COc1cc(O)c(CC=C(C)C)c(O)c1C(=O)/C=C/c1ccc(O)cc1 [XANTHOHUMOL],16,8,8,8,4,8,16,8,8,8,8,196,MIC (Staphylococcus aureus [31]): 15.6 µg/mL; MIC (Staphylococcus aureus [32]): 15.6 µg/mL; MIC (Staphylococcus aureus [33]): 15.6 µg/mL
CCCNC(=O)C[N+](C)(C)CCCCOc1ccc(/C=C/C(=O)c2c(OC)cc3c(c2O)C=CC(C)(C)O3)cc1.[Br-],4,2,2,2,4,4,2,2,2,2,4,410,–
